Experimental data reported in ChEMBL document CHEMBL5291721, “A preclinical secondary pharmacology resource illuminates target-adverse drug reaction associations of marketed drugs” (Nat Commun, 2023).

How the values were obtained:
[1] = biological target: T1, Alpha-2A adrenergic receptor (Homo sapiens, UniProt P08913)
T1 sequence (P08913 whole entry): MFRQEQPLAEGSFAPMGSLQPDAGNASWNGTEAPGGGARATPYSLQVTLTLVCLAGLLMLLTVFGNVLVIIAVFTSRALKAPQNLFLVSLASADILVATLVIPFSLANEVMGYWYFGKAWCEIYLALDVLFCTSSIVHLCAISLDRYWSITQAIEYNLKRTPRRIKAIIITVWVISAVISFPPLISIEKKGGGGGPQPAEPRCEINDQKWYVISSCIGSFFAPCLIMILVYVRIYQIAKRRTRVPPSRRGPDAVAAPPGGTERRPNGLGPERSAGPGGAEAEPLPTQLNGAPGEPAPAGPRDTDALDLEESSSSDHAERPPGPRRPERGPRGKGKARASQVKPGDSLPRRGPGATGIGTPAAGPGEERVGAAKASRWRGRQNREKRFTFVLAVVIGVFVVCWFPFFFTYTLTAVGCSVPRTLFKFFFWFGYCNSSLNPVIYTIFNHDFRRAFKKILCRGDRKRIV

B2 bradykinin receptor = biological target: T2, B2 bradykinin receptor (Homo sapiens, UniProt P30411)
T2 sequence (P30411 whole entry): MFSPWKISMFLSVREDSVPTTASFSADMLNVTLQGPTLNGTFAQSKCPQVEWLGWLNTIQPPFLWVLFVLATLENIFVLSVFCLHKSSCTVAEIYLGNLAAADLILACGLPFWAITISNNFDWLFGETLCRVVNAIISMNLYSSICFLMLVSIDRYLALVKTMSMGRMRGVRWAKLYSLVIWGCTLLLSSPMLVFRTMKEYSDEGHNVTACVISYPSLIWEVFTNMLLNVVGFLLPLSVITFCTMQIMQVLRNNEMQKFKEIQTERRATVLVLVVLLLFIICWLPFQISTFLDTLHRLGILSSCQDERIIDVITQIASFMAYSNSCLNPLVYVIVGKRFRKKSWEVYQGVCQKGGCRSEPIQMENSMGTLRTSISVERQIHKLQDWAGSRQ

[2] = biological target: Kappa-type opioid receptor (Homo sapiens, UniProt P41145)
Kappa-type opioid receptor, sequence (P41145 whole entry): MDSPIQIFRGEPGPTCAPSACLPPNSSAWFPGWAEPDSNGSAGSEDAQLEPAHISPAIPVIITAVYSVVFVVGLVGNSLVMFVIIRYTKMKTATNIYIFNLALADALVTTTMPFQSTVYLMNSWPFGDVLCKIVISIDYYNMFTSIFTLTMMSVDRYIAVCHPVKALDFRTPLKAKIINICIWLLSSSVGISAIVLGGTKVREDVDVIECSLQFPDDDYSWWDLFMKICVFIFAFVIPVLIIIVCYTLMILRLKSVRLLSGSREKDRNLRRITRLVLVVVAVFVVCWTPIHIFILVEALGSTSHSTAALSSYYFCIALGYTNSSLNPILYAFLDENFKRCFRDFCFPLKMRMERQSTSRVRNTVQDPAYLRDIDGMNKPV

[3] = biological target: Beta-2 adrenergic receptor (Homo sapiens, UniProt P07550)
Beta-2 adrenergic receptor, sequence (P07550 whole entry): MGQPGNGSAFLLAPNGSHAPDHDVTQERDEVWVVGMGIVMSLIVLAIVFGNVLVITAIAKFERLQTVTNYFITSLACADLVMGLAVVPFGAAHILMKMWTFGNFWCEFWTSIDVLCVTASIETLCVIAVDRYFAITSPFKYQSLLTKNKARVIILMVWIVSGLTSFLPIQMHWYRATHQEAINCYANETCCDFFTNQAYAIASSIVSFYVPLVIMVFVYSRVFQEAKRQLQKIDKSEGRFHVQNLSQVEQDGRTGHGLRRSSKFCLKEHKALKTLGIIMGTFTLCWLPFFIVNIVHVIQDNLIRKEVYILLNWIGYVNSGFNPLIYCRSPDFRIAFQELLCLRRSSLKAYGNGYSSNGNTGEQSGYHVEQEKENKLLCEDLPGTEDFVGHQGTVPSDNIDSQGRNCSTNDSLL

[4] = biological target: T3, Alpha-1A adrenergic receptor (Homo sapiens, UniProt P35348); assay type: functional, cell-based
T3 sequence (P35348 whole entry): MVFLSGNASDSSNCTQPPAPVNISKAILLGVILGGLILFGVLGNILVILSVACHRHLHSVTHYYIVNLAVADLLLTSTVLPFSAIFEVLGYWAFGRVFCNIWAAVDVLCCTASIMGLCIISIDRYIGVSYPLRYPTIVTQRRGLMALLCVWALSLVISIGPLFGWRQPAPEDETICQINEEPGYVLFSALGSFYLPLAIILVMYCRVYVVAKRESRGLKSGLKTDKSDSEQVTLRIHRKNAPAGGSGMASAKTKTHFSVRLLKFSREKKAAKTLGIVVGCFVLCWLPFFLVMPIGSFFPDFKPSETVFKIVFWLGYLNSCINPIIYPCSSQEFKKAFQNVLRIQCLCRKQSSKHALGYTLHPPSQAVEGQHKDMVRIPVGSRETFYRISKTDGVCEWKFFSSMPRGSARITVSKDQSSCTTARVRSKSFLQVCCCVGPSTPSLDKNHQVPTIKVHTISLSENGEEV

[5] = biological target: T4, Alpha-2B adrenergic receptor (Homo sapiens, UniProt P18089)
T4 sequence (P18089 whole entry): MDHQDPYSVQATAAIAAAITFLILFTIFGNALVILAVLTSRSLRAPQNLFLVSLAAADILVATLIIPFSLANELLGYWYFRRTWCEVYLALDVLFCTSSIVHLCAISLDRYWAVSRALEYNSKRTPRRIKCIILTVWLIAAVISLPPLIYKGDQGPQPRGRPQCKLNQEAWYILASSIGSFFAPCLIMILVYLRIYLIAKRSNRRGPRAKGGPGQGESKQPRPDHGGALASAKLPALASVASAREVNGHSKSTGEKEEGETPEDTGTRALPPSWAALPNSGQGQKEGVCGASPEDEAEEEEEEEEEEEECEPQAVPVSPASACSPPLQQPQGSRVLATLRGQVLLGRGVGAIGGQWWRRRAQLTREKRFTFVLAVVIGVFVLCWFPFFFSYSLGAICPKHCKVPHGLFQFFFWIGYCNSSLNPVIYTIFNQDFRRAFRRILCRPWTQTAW

Cannabinoid receptor 1 = Cannabinoid receptor 1 (Homo sapiens, UniProt P21554); assay type: functional, cell-based
Cannabinoid receptor 1, sequence (P21554 whole entry): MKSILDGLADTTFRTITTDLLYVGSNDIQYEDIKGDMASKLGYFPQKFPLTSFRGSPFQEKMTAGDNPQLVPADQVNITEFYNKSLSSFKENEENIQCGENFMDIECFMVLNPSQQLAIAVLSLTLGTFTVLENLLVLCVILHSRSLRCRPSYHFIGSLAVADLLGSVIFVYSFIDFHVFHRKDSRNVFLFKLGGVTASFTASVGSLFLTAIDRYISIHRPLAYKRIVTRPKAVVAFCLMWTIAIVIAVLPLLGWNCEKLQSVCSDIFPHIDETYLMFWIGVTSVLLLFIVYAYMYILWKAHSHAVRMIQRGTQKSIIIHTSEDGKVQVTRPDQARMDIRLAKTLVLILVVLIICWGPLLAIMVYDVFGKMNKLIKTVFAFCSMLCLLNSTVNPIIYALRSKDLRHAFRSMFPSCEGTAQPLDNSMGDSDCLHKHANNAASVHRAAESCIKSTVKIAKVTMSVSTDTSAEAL

[6] = biological target: Sodium-dependent serotonin transporter (Homo sapiens, UniProt P31645)
Sodium-dependent serotonin transporter, sequence (P31645 whole entry): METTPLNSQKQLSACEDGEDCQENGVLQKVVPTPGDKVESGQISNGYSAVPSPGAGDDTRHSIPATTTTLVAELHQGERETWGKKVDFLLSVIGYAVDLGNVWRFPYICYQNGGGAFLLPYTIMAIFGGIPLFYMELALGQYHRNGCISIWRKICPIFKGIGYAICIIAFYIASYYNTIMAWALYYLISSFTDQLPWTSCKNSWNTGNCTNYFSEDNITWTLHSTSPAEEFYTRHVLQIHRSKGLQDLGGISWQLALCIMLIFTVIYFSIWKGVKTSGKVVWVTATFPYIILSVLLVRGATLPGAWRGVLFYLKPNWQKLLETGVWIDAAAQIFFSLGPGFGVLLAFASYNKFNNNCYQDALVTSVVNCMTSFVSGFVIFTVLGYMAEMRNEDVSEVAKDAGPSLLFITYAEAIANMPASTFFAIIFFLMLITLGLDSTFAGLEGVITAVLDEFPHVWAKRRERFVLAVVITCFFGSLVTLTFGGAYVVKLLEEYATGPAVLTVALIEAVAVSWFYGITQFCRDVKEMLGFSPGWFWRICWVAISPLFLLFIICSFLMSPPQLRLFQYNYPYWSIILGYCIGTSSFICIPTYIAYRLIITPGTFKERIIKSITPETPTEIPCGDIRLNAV

Thromboxane A2 receptor = biological target: T5, Thromboxane A2 receptor (Homo sapiens, UniProt P21731); assay type: functional, cell-based
T5 sequence (P21731 whole entry): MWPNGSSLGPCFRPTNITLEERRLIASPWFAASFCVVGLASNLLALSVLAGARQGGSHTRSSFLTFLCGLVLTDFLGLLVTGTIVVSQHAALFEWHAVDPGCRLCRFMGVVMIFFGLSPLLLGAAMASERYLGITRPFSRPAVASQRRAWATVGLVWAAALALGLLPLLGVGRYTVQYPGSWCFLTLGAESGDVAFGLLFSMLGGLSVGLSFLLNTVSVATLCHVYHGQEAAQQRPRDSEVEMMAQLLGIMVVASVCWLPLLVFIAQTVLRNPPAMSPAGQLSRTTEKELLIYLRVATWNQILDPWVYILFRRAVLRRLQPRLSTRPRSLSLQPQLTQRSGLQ

Vasopressin V2 receptor = Vasopressin V2 receptor (Homo sapiens, UniProt P30518)
Vasopressin V2 receptor, sequence (P30518 whole entry): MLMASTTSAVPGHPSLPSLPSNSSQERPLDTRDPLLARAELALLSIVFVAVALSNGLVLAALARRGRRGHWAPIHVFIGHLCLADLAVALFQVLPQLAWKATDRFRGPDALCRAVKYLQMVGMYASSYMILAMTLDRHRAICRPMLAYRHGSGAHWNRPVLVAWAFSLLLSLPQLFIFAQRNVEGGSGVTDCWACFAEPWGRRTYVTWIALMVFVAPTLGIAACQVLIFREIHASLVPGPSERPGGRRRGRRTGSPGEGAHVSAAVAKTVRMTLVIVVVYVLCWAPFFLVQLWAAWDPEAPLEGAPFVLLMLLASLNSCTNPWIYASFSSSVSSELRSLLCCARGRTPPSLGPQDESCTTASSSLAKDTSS

[7] = biological target: Vascular endothelial growth factor receptor 2 (Homo sapiens, UniProt P35968); assay type: functional
Vascular endothelial growth factor receptor 2, sequence (P35968 whole entry): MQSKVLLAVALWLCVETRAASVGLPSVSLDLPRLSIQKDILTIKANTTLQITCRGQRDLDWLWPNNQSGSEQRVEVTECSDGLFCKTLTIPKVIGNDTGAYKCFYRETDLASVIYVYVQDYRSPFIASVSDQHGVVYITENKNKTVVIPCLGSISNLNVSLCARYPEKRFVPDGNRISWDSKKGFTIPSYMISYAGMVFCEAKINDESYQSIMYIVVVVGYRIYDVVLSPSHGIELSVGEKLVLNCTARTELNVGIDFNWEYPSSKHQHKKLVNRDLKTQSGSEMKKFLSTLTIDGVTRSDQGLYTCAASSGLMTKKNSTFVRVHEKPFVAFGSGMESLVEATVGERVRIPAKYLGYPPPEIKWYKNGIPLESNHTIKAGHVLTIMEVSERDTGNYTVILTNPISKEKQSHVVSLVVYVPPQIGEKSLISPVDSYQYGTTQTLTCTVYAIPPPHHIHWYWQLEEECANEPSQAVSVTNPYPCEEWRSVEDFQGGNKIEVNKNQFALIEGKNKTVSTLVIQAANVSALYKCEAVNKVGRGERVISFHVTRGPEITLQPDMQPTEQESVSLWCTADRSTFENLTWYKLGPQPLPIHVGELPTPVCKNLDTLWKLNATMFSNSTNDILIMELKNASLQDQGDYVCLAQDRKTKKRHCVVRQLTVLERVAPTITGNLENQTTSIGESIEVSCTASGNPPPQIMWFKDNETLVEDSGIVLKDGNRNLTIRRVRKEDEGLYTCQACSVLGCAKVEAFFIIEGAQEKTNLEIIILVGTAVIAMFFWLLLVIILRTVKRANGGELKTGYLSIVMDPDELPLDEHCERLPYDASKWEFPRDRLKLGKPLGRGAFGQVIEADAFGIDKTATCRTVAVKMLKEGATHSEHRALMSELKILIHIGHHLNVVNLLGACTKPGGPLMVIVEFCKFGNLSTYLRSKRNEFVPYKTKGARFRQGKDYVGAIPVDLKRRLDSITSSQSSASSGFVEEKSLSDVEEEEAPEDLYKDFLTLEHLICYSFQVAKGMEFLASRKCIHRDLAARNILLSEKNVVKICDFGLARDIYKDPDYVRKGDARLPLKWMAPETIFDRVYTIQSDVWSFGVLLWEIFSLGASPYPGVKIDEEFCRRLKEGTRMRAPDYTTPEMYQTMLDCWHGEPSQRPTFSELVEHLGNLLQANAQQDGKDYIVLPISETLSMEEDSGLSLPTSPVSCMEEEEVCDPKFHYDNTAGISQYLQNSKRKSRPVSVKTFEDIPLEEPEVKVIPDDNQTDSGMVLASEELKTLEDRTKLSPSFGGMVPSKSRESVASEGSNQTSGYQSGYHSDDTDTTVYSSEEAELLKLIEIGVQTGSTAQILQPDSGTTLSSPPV

[8] = biological target: T6, Gastrin/cholecystokinin type B receptor (Homo sapiens, UniProt P32239)
T6 sequence (P32239 whole entry): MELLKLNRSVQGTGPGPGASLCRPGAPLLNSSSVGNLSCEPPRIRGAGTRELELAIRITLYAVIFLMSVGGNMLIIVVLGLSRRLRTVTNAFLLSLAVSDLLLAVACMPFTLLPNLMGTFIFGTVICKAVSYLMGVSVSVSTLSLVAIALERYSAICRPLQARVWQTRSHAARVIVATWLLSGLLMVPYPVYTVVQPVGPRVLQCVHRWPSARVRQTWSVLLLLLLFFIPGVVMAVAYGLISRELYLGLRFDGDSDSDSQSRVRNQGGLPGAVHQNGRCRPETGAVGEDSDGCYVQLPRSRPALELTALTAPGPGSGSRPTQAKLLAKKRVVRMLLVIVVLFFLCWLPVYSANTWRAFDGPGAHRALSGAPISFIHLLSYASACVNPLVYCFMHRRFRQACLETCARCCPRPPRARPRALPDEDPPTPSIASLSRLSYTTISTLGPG
Also: assay procedure not described here.

SMILES	AC50 [1]	AC50 (B2 bradykinin receptor)	AC50 [2]	AC50 [3]	AC50 [4]	AC50 [5]	AC50 (Cannabinoid receptor 1)	AC50 [6]	AC50 (Thromboxane A2 receptor)	AC50 (Vasopressin V2 receptor)	AC50 [7]	AC50 [8]
CC[C@H]1[C@@H](O)[C@@H]2[C@H](CC[C@]3(C)[C@@H]([C@H](C)CCC(=O)O)CC[C@@H]23)[C@@]2(C)CC[C@@H](O)C[C@@H]12 [OBETICHOLIC ACID]	> 30 µM	> 30 µM	> 30 µM	> 30 µM	6.3 µM	> 30 µM	> 30 µM	> 30 µM	> 30 µM	> 30 µM	> 30 µM	> 30 µM
C=CCc1ccccc1OCC(O)CNC(C)C (stereo not drawn) [ALPRENOLOL]	> 0.3 µM	14 µM	> 30 µM	–	7.53 µM	> 30 µM	> 30 µM	> 0.3 µM	> 0.3 µM	> 30 µM	> 0.3 µM	> 30 µM
O=C(OCC(O)CO)c1ccccc1Nc1ccnc2cc(Cl)ccc12 (stereo not drawn) [GLAFENINE]	> 30 µM	–	–	–	> 30 µM	> 30 µM	> 30 µM	> 30 µM	> 30 µM	–	6.96 µM	–
CC[N+]1(C)[C@@H]2CC(OC(=O)[C@H](CO)c3ccccc3)C[C@H]1[C@@H]1O[C@@H]12 (stereo partly drawn) [OXITROPIUM]	> 30 µM	–	–	–	–	–	–	> 30 µM	> 30 µM	–	> 30 µM	–
O=C(O)c1cc(O)ccc1O [GENTISIC ACID]	> 30 µM	–	–	–	–	–	–	> 30 µM	> 30 µM	–	> 30 µM	–
